The text below walks through data of ChEMBL document CHEMBL4145510, “Discovery of a Keap1-dependent peptide PROTAC to knockdown Tau by ubiquitination-proteasome degradation pathway” (Eur J Med Chem, 2018).

Molecules are shown by their SMILES. Activity calls are given as the source filed them. The rule behind the calls is not given here.

The target in data set [1] is T1, Kelch-like ECH-associated protein 1/Microtubule-associated protein tau/Cullin-3 (Homo sapiens) (UniProt P10636+Q14145+Q13618). Briefly: Induction of Keap1/Cul3- mediated EGFP tagged Tau (unknown origin) degradation in human SH-SY5Y cells at 20 uM after 10 hrs by flow cytometry analysis. The format is cell-based. In general terms: In flow cytometry, cells or beads pass a laser one at a time.

The target of data set [2] is T1, Kelch-like ECH-associated protein 1/Microtubule-associated protein tau/Cullin-3 (Homo sapiens). Briefly: Induction of Keap1/Cul3- mediated EGFP tagged Tau (unknown origin) degradation in human SH-SY5Y cells at 10 uM incubated for 10 hrs in absence of proteasome inhibitor MG132 by Western blot analysis. The format is cell-based. (In general: In western blotting, separated proteins are transferred to a membrane and probed.)

The target is the same in data set [3]. Briefly: Induction of Keap1/Cul3- mediated EGFP tagged Tau (unknown origin) degradation in human SH-SY5Y cells at 10 uM incubated for 10 hrs in presence of proteasome inhibitor MG132 by Western blot analysis. The data set is classed as cell-based.
Data set [4] has as its target Cullin-3/Microtubule-associated protein tau (Homo sapiens) (UniProt P10636+Q13618). Briefly: Induction of Cul3- mediated EGFP tagged Tau (unknown origin) degradation in human SH-SY5Y cells harboring Keap1 siRNA at 10 uM by Western blot analysis. The data set is classed as cell-based.
Data set [5] addresses Kelch-like ECH-associated protein 1 (Homo sapiens, UniProt Q14145). Nature of the data set: Binding affinity to human Keap1 (322 to 609 residues) by ITC method. Background: In ITC the heat of successive injections is recorded.
In data set [6] the target is Microtubule-associated protein tau (Homo sapiens, UniProt P10636). Briefly: Binding affinity to human Tau (1 to 441 residues) by ITC method.
The nature of data set [7]: Drug uptake in human SH-SY5Y cells using N-terminal TAMRA labeled compound at 10 uM after 12 hrs by Flow cytometry analysis. The format is ADME, cell-based.
Data set [8] is described as follows: Drug uptake in human SH-SY5Y cells using N-terminal TAMRA labeled compound at 10 uM after 8 hrs by DAPI staining-based laser scanning confocal microscopic analysis. The data set is classed as ADME, cell-based.
For data set [9], the target named is Kelch-like ECH-associated protein 1/Microtubule-associated protein tau (Homo sapiens) (UniProt P10636+Q14145). Nature of the data set: Binding affinity to Keap1/Tau in human SH-SY5Y cells at 10 to 20 uM by Western blot analysis. The data set is classed as cell-based.
The nature of data set [10]: Induction of Keap1/Cul3- mediated EGFP tagged Tau (unknown origin) degredation in mouse Neuro2a cells by Western blot analysis. The data set is classed as cell-based.
A short description of data set [11]: Induction of Keap1/Cul3- mediated EGFP tagged Tau (unknown origin) degradation in rat PC12 cells by Western blot analysis. The format is cell-based.

What is called Kd is the free concentration of one partner at which half of the binding sites on the other are occupied at equilibrium, for simple one-to-one binding. High values mean weaker binding, low ones tighter binding.

T1 sequence (P10636 whole entry, looked up): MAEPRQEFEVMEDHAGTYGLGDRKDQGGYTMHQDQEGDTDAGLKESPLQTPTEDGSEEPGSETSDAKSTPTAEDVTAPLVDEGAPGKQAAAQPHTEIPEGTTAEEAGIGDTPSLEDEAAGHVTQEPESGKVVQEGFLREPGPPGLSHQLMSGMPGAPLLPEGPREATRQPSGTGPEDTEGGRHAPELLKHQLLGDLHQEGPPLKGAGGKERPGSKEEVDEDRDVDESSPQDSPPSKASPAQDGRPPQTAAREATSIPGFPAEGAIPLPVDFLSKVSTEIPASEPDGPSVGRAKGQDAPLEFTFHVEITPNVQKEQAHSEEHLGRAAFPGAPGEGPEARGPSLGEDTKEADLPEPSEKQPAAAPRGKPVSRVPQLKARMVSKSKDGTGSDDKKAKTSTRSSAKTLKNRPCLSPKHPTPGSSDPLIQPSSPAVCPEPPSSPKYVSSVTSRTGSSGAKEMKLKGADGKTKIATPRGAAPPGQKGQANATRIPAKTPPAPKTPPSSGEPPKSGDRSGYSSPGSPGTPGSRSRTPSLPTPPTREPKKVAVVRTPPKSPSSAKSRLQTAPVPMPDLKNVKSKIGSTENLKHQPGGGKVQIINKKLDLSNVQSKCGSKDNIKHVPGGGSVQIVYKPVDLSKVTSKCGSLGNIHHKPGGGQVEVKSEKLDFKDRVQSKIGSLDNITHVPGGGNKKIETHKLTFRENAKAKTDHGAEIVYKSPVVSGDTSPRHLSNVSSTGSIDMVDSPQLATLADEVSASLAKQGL
T1 sequence (Q13618 whole entry, looked up): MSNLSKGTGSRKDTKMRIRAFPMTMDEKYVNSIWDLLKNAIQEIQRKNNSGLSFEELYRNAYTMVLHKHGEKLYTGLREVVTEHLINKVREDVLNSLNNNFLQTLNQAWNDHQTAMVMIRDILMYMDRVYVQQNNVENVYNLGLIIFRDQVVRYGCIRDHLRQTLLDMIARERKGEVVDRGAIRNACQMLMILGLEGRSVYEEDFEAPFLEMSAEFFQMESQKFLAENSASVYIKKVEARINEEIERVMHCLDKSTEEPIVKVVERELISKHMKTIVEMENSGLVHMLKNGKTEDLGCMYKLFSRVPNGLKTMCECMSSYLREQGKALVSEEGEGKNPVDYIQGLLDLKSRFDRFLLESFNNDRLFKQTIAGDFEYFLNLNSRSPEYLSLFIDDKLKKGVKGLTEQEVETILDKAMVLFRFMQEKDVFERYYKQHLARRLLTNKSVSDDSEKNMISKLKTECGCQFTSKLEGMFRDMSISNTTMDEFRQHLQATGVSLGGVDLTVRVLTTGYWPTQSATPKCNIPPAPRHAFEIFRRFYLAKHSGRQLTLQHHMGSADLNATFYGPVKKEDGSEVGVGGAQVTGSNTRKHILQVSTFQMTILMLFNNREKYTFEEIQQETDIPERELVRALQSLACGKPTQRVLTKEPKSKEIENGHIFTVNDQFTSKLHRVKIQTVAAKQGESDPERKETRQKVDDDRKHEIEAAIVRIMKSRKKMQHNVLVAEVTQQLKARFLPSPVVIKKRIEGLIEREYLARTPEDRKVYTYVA
T1 sequence (Q14145 whole entry, looked up): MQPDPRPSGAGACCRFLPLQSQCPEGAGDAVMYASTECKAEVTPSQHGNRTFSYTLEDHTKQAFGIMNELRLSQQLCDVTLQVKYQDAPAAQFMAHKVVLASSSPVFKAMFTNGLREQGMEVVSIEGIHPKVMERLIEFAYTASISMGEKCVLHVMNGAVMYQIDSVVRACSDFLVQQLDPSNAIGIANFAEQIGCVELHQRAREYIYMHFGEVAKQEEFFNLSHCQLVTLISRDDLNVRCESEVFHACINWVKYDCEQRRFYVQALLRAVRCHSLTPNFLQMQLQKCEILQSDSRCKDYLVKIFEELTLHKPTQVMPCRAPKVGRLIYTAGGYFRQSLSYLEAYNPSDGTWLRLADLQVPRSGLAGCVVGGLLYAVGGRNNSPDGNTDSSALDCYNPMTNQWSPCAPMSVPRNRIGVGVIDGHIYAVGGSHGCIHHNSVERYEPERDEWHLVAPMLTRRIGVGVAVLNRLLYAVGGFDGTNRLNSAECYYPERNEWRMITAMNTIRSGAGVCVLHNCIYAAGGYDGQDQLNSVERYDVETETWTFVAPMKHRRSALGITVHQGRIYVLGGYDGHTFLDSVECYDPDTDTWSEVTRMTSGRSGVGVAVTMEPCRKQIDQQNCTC
Cullin-3/Microtubule-associated protein tau (Homo sapiens), sequence (P10636 whole entry, looked up, the tested form may be a part): as the sequence (P10636 whole entry, looked up) above
Cullin-3/Microtubule-associated protein tau (Homo sapiens), sequence (Q13618 whole entry, looked up, the tested form may be a part): as the sequence (Q13618 whole entry, looked up) above
Microtubule-associated protein tau, sequence (P10636 whole entry, the tested form may be a part): as the sequence (P10636 whole entry, looked up) above
Kelch-like ECH-associated protein 1/Microtubule-associated protein tau (Homo sapiens), sequence (P10636 whole entry, looked up): as above
Kelch-like ECH-associated protein 1/Microtubule-associated protein tau (Homo sapiens), sequence (Q14145 whole entry, looked up): as the sequence (Q14145 whole entry, looked up) above
Kelch-like ECH-associated protein 1, sequence (Q14145 whole entry, the tested form may be a part): as the sequence (Q14145 whole entry, looked up) above

Regarding `CC(=O)N[C@@H](Cc1ccc(O)cc1)C(=O)N[C@@H](CCC(N)=O)C(=O)N[C@@H](CCC(N)=O)C(=O)N[C@@H](Cc1ccc(O)cc1)C(=O)N[C@@H](CCC(N)=O)C(=O)N[C@@H](CC(=O)O)C(=O)N[C@@H](C)C(=O)N[C@H](C(=O)N[C@@H](C)C(=O)N[C@@H](CC(=O)O)C(=O)N[C@@H](CCC(=O)O)C(=O)N[C@@H](CCC(N)=O)C(=O)NCC(=O)NCC(=O)N[C@@H](CO)C(=O)NCC(=O)N[C@@H](CO)C(=O)N[C@@H](CC(C)C)C(=O)N[C@@H](CC(=O)O)C(=O)N1CCC[C@H]1C(=O)N[C@@H](C)C(=O)N[C@H](C(=O)NCC(=O)N[C@@H](CCC(=O)O)C(=O)N[C@@H](Cc1ccc(O)cc1)C(=O)N[C@@H](CC(C)C)C(=O)N[C@H](CCCNC(=N)N)C(=O)N[C@H](CCCNC(=N)N)C(=O)N[C@H](CCCNC(=N)N)C(=O)N[C@H](CCCNC(=N)N)C(=O)N[C@H](CCCNC(=N)N)C(=O)N[C@H](CCCNC(=N)N)C(=O)N[C@H](CCCNC(=N)N)C(=O)N[C@H](CCCNC(=N)N)C(=O)O)[C@@H](C)O)[C@@H](C)O`, the outcome in [1], in data set [2], in [3] and in data set [4] was inactive.

For the compound `CC(=O)N[C@@H](Cc1ccc(O)cc1)C(=O)N[C@@H](CCC(N)=O)C(=O)N[C@@H](CCC(N)=O)C(=O)N[C@@H](Cc1ccc(O)cc1)C(=O)N[C@@H](CCC(N)=O)C(=O)N[C@@H](CC(=O)O)C(=O)N[C@@H](C)C(=O)N[C@H](C(=O)N[C@@H](C)C(=O)N[C@@H](CC(=O)O)C(=O)N[C@@H](CCC(=O)O)C(=O)N[C@@H](CCC(N)=O)C(=O)NCC(=O)NCC(=O)N[C@@H](CO)C(=O)NCC(=O)N[C@@H](CO)C(=O)N[C@@H](CC(C)C)C(=O)N[C@@H](CC(=O)O)C(=O)N1CCC[C@H]1C(=O)N[C@@H](CCC(=O)O)C(=O)N[C@H](C(=O)NCC(=O)N[C@@H](CCC(=O)O)C(=O)N[C@@H](Cc1ccccc1)C(=O)N[C@@H](CC(C)C)C(=O)N[C@H](CCCNC(=N)N)C(=O)N[C@H](CCCNC(=N)N)C(=O)N[C@H](CCCNC(=N)N)C(=O)N[C@H](CCCNC(=N)N)C(=O)N[C@H](CCCNC(=N)N)C(=O)N[C@H](CCCNC(=N)N)C(=O)N[C@H](CCCNC(=N)N)C(=O)N[C@H](CCCNC(=N)N)C(=O)O)[C@@H](C)O)[C@@H](C)O`, the result in data set [1] was Active.

Regarding `CC(=O)N[C@@H](Cc1ccc(O)cc1)C(=O)N[C@@H](CCC(N)=O)C(=O)N[C@@H](CCC(N)=O)C(=O)N[C@@H](Cc1ccc(O)cc1)C(=O)N[C@@H](CCC(N)=O)C(=O)N[C@@H](CC(=O)O)C(=O)N[C@@H](C)C(=O)N[C@H](C(=O)N[C@@H](C)C(=O)N[C@@H](CC(=O)O)C(=O)N[C@@H](CCC(=O)O)C(=O)N[C@@H](CCC(N)=O)C(=O)NCC(=O)NCC(=O)NCC(=O)N[C@@H](CO)C(=O)NCC(=O)NCC(=O)N[C@@H](CC(C)C)C(=O)N[C@@H](CC(=O)O)C(=O)N1CCC[C@H]1C(=O)N[C@@H](CCC(=O)O)C(=O)N[C@H](C(=O)NCC(=O)N[C@@H](CCC(=O)O)C(=O)N[C@@H](Cc1ccc(O)cc1)C(=O)N[C@@H](CC(C)C)C(=O)N[C@H](CCCNC(=N)N)C(=O)N[C@H](CCCNC(=N)N)C(=O)N[C@H](CCCNC(=N)N)C(=O)N[C@H](CCCNC(=N)N)C(=O)N[C@H](CCCNC(=N)N)C(=O)N[C@H](CCCNC(=N)N)C(=O)N[C@H](CCCNC(=N)N)C(=O)N[C@H](CCCNC(=N)N)C(=O)O)[C@@H](C)O)[C@@H](C)O`, in data set [1], the result was inactive.

On to `CC(=O)N[C@@H](Cc1ccc(O)cc1)C(=O)N[C@@H](CCC(N)=O)C(=O)N[C@@H](CCC(N)=O)C(=O)N[C@@H](Cc1ccc(O)cc1)C(=O)N[C@@H](CCC(N)=O)C(=O)N[C@@H](CC(=O)O)C(=O)N[C@@H](C)C(=O)N[C@H](C(=O)N[C@@H](C)C(=O)N[C@@H](CC(=O)O)C(=O)N[C@@H](CCC(=O)O)C(=O)N[C@@H](CCC(N)=O)C(=O)NCC(=O)NCC(=O)N[C@@H](CO)C(=O)NCC(=O)N[C@@H](CO)C(=O)N[C@@H](CC(C)C)C(=O)N[C@@H](CC(=O)O)C(=O)N1CCC[C@H]1C(=O)N[C@@H](CCC(=O)O)C(=O)N[C@H](C(=O)NCC(=O)N[C@@H](CCC(=O)O)C(=O)N[C@@H](Cc1ccc(O)cc1)C(=O)N[C@@H](CC(C)C)C(=O)N[C@H](CCCNC(=N)N)C(=O)N[C@H](CCCNC(=N)N)C(=O)N[C@H](CCCNC(=N)N)C(=O)N[C@H](CCCNC(=N)N)C(=O)N[C@H](CCCNC(=N)N)C(=O)N[C@H](CCCNC(=N)N)C(=O)N[C@H](CCCNC(=N)N)C(=O)N[C@H](CCCNC(=N)N)C(=O)O)[C@@H](C)O)[C@@H](C)O`, for which the values for the Kd in data set [5] and in data set [6] were 22.8 nM and 763 nM, respectively. Besides, the Drug uptake result in data set [7] and in [8] was “Active” in each case. Moreover, the outcome in data set [9], in data set [1] and in [2] was Active. The Activity entry in [10] and in data set [11] was “Dose-dependent effect” throughout. Moreover, the outcome in [3] and in [4] was inactive.

For `CC(=O)N[C@@H](CCCCN)C(=O)N[C@@H](CC(=O)O)C(=O)N[C@@H](Cc1ccc(O)cc1)C(=O)N[C@@H](CCC(=O)O)C(=O)N[C@@H](CCC(=O)O)C(=O)N[C@H](C(=O)NCC(=O)N[C@H](C(=O)N[C@@H](CC(=O)O)C(=O)N[C@@H](CO)C(=O)N[C@H](C(=O)N[C@@H](CCC(=O)O)C(=O)NCC(=O)N[C@@H](CO)C(=O)NCC(=O)N[C@@H](CO)C(=O)N[C@@H](CC(C)C)C(=O)N[C@@H](CC(=O)O)C(=O)N1CCC[C@H]1C(=O)N[C@@H](CCC(=O)O)C(=O)N[C@H](C(=O)NCC(=O)N[C@@H](CCC(=O)O)C(=O)N[C@@H](Cc1ccc(O)cc1)C(=O)N[C@@H](CC(C)C)C(=O)N[C@H](CCCNC(=N)N)C(=O)N[C@H](CCCNC(=N)N)C(=O)N[C@H](CCCNC(=N)N)C(=O)N[C@H](CCCNC(=N)N)C(=O)N[C@H](CCCNC(=N)N)C(=O)N[C@H](CCCNC(=N)N)C(=O)N[C@H](CCCNC(=N)N)C(=O)N[C@H](CCCNC(=N)N)C(=O)O)[C@@H](C)O)C(C)C)C(C)C)C(C)C`, the result in [1] was Active.
